Bounds are passed on as bounds.

For the first assay, the system named is PLCβ. Briefly: Inhibition of PLCβ purified from bovine brain (assay mixture as in Example 12). The class given is biochemical. The settings on record: PLCβ from bovine brain substituted for PLCγ; Tables 3 and 4. The procedure: Assay of purified PLCγ1 activitiy. Activity of the purified PLCγ1 was assayed at 30° C. Reactions were never allowed to proceed to more than 10% completion based on the limiting substrate. A typical reaction contained the following: 50 mM HEPES pH7.5, 0.1% Deoxycholate, 3 mM CaCl2, 1 mM EGTA, 0.1 mM DTT with phosphatidyl inositol (1-1000 μM) (PI) and 0.02 uCi [^3 H]-phosphatidyl inositol (PI) as substrate. The phospholipid components were dried under a gentle stream of nitrogen and resuspended in assay buffer. The substrate mix is then vortexed and sonicated (10 sec. with probe sonicator) to disperse the lipid and form micelles. After thermally preequilibrating the assay mixture in the absence of enzyme, the reaction was initiated by adding PLCγ1. Reactions containing 0.2 ml aliquots were terminated by addition of 1/4 volume 1N HCl, 5 mM EGTA and transferred to an ice bath. The quenched reactions are then filtered through a Q sepharose (Pharmacia) column. To prepare the Q sepharose column 1 ml of Q Sepharose slurry is added to a disposable plastic column. The resin is equilibrated by passing through 20 ml of 10 mM NH4 H2 PO4, pH 3.5. The quenched reaction, typically 200 μl, is applied to the column and 3 ml of 10 mM NH4 H2 PO4, pH 3.5 is added, the flow through from this step is collected in a scintillation vial, mixed with 10 ml of scintillation fluid and counted in a Beckman LS3801 scintillation counter.
PLC-β are obtained as described by S. G. Rhee et al., Meth. Enzym., 197:502-511 (1991). Specifically PLC-δ is purified from the cytosolic fraction of bovine brains, while PLC-β is mainly obtained from the particulate fraction. However, since the particulate and cytosolic forms of PLC-β are identical with respect to amino acid sequence, PLC-β-containing fractions pooled during the purification of the cytosolic PLC-δ are combined with the PLC-β fraction from the particulate fraction. A total of 36 bovine brains are used for the purification. Twelve brains are processed at one time.
Step 8: Ion-Exchange Chromatography of PLC-β on DEAE-Cellulose. Because of turbidity, the combined protein solution from Steps 2 and 3 cannot be chromatographed on a DEAE-cellulose column directly. Therefore, two stages of DEAE-cellulose chromatography, a batch procedure followed by a column step, are employed. In the batch step, all of the combined proteins are absorbed on 2 liters of DEAE-cellulose equilibrated with 20 mM Tris-HCl, pH 7.6, containing 5 mM EGTA and 0.1 mM DTT. The DEAE-cellulose slurry is stirred and then collected in a 4-liter sintered glass (coarse) filter funnel. The DEAE-cellulose is washed with the equilibration buffer until it is free of turbid lipid materials and unbound protein. For the column procedure, the washed DEAE-cellulose is removed from the filter funnel, mixed with the equilibration buffer, and poured onto a column already containing a 10 cm high bed of equilibrated DEAE-cellulose (final dimension, 8×45 cm). The column is eluted at a flow rate of 8 ml/min with an 8-liter linear gradient from 0 to 300 mM KCl buffer containing 50 mM Tris-HCl, pH 7.6, 1 mM EGTA, and 0.1 mM DTT. The activity peak is eluted at a KCl concentration of 110 mM. The peak fractions (600 ml) are pooled.
Step 9: Heparin-Agarose Chromatography of PLC-β. The pooled fraction from Step 8 (600 ml) is applied to a heparin-agarose column (5×25 cm) equilibrated with 20 mM HEPES, pH 7.0, 100 mM NaCl, 0.1 mM DTT, and 1 mM EGTA. The column is eluted with a linear gradient from 100 to 500 mM NaCl in 1.5 liters of equilibrium buffer. Peak fractions (310 ml) are pooled and concentrated on an Amicon filter to 27 ml.
Step 10: Reversed-Phase Chromatography of PLC-β on TSK Phenyl-5-PW. Solid KCl is added to the concentrated fractions from Step 9 to give a concentration of 3M, and the mixtures are centrifuged to remove denatured proteins. […]
For `O=P(O)(O)C(O)c1cccc(Oc2ccc(Cl)c(Cl)c2)c1` (stereo not shown) [Example 3, 1-Hydroxy-1-(3-(3,4-dichlorophenoxy)phenyl)methylphosphonic acid], the IC50 was 110 µM.

In the case of `Cc1ccc(Oc2cccc(C(O)P(=O)(O)O)c2)cc1` (stereo not shown) [Example 7, 1-Hydroxy-1-(3-(4-methylphenoxy)phenyl)methylphosphonic acid], the IC50 worked out at 31 µM. On the same count and under the same terms, the value for `O=P(O)(O)C(O)c1cccc(Oc2cccc(Cl)c2)c1` (stereo not shown) [Example 1, 1-Hydroxy-1-(3-(3-chlorophenoxy)phenyl)methylphosphonic acid] was 24 µM; that for `O=P(O)(O)C(O)c1cccc(Oc2ccccc2)c1` (stereo not shown) [Example 2, 1-Hydroxy-1-(3-phenoxyphenyl)methylphosphonic acid] was more than 300 µM; that for `O=P(O)(O)C(O)c1ccc(Oc2cccc(Cl)c2)cc1` (stereo not shown) [Example 9, 1-Hydroxy-1-(4-(3-chlorophenoxy)phenyl)methylphosphonic acid] was 9 µM. Same read-out and setting: the value for `O=P(O)(O)C(O)c1cccc(Oc2ccc(Cl)cc2)c1` (stereo not shown) [Example 4, 1-Hydroxy-1-(3-(4-chlorophenoxy)phenyl)methylphosphonic acid] was 65 µM.

For `O=P(O)(O)C(O)c1cccc(Oc2ccc(O)cc2)c1` (stereo not shown) [Example 8, 1-Hydroxy-1-(3-(4-hydroxyphenoxy)phenyl)methylphosphonic acid], the IC50 stood at 7 µM. Same read-out and setting: the value for `COc1cccc(Oc2ccc(C(O)P(=O)(O)O)cc2)c1` (stereo not shown) [Example 11, 1-Hydroxy-1-(4-(3-methoxyphenoxy)phenyl)methylphosphonic acid] was 11 µM; that for `CCc1cccc(Oc2ccc(C(O)P(=O)(O)O)cc2)c1` (stereo not shown) [Example 10, 1-Hydroxy-1-(4-(3-ethylphenoxy)phenyl)methylphosphonic acid] was 74 µM. Still for that read-out and setting: the value for `O=P(O)(O)C(O)c1ccc(Oc2ccccc2)cc1` (stereo not shown) [reference compound] was more than 300 µM; that for `O=P(O)(O)C(O)c1cccc(Oc2ccccc2Cl)c1` (stereo not shown) [Example 5, 1-Hydroxy-1-(3-(2-chlorophenoxy)phenyl)methylphosphonic acid] was 38 µM. As to `COc1ccc(Oc2cccc(C(O)P(=O)(O)O)c2)cc1` (stereo not shown) [Example 6, 1-Hydroxy-1-(3-(4-methoxyphenoxy)phenyl)methylphosphonic acid], the concentration for half-maximal inhibition (IC50) was found to be 717 µM.

The target in the next assay is T1, PLCγ1 (Rattus norvegicus, UniProt P10686).
T1 construct: made in house; host or cells: E. coli BL21 (DE3), plasmid pT5T-PLC4 (ATCC 69421)
T1 sequence (P10686 with tags, fused parts or gaps): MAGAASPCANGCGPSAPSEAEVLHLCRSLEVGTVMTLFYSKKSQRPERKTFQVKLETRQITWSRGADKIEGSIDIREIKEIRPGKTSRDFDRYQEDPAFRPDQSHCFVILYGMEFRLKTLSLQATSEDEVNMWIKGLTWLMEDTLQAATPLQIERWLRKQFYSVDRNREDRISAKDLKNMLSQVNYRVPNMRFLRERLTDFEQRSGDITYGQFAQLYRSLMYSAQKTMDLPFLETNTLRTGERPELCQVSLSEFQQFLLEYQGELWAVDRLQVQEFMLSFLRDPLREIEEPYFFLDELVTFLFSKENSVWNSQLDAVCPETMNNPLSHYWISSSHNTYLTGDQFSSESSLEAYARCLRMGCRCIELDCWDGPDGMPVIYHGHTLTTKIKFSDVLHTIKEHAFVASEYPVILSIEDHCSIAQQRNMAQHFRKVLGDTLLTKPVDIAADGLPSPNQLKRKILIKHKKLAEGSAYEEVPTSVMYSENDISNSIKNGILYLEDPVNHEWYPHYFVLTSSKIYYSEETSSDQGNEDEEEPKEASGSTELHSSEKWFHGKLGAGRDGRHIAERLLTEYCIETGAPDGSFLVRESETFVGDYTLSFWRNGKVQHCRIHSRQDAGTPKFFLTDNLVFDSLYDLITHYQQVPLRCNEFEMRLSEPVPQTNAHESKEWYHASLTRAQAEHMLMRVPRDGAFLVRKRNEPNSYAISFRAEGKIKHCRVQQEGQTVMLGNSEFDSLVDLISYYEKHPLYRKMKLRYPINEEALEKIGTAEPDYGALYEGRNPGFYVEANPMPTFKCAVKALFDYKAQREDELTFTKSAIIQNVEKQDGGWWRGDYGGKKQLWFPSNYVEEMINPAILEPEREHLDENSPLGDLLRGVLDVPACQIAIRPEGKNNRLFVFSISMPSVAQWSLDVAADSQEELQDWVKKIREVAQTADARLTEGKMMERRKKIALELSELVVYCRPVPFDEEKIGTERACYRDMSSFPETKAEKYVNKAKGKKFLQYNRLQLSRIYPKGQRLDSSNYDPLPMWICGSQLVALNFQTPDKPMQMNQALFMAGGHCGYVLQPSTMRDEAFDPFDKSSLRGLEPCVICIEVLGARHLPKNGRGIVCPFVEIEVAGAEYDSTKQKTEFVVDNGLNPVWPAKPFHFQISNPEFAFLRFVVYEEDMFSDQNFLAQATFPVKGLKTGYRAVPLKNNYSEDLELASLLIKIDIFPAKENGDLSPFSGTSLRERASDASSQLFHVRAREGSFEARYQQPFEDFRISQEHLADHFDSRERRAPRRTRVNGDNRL
Briefly: Inhibition of purified recombinant PLCγ1 ([3H]-phosphatidyl inositol hydrolysis). The settings on record: PLCγ1, 30° C., phosphatidyl inositol substrate; Tables 1 and 2. The class given is biochemical. From the text: Subcloning of the PLCγ Coding Sequence. Rat brain cDNA is synthesized using rat brain poly(A)RNA as template by literature protocol (Sanbrook, J. et al., Molecular Cloning: A Laboratry Manual, Cold Spring Harbor Laboratory Press, Cold Spring Harbor, N.Y.). From the published cDNA sequence of rat brain PLCγ1 (Suh, P.-G., Ryu, S. H., Moon, K. H., Suh, H. W., & Rhee, S. G. (1988) Proc. Natl. Acad. Sci. USA 85, 5419-5423), PCR primers, one which contains a BamHI restriction site upstream of the sequence complementary to the 5' end of the PLCγ1 gene (primer 01), and the other one which contains a HindIII site downsteam of the 3' end of the PLCγ gene (primer 04), were synthesized. Carrying out the PCR using these primers (01 and 04) with the above mentioned rat brain cDNA as template, a DNA fragment with the entire rat brain PLCγ1 coding sequence, flanked by a 5' BamHI site and a 3' HindIII site, is generated. This BamHI-HindIII fragment containing the coding sequence of PLCγ was subcloned into pBSII(S/K)+, generating pPLC1. The rest of the manipulations were accomplished using PCR to generate the appropriate DNA fragment. […]
Turning to `O=P(O)(O)C(O)c1ccc(Oc2ccccc2)cc1` (stereo not shown) [reference compound], the IC50 is more than 300 µM.

What is called IC50 is the concentration that gives 50% inhibition.

The record behind these values is patent US5519163A, “Inhibitors of phosphoinositide-specific phospholipase C” (Merck & Co., Inc., priority 1993, dated 1996).
